Numbers after ± are expanded uncertainties.
Experiment: xn = mol fraction of the nth substance listed
Details: Liquid, Vibrating tube method

c1ccc2sccc2c1 [benzo[b]thiophene] + CCCCCC
mass density (332.66 K, 11013 kPa, x2 = 0.2588): 998.9 ± 0.5 kg/m3
mass density (332.66 K, 12006 kPa, x2 = 0.2588): 999.7 ± 0.5 kg/m3
mass density (332.66 K, 13011 kPa, x2 = 0.2588): 1000.4 ± 0.5 kg/m3
mass density (332.66 K, 14000 kPa, x2 = 0.2588): 1001.2 ± 0.5 kg/m3
mass density (332.66 K, 15025 kPa, x2 = 0.2588): 1002 ± 0.5 kg/m3
mass density (332.66 K, 16005 kPa, x2 = 0.2588): 1002.6 ± 0.5 kg/m3
mass density (332.66 K, 17000 kPa, x2 = 0.2588): 1003.3 ± 0.5 kg/m3
mass density (332.66 K, 18002 kPa, x2 = 0.2588): 1004.1 ± 0.5 kg/m3
mass density (332.66 K, 19009 kPa, x2 = 0.2588): 1004.8 ± 0.5 kg/m3
mass density (332.66 K, 20016 kPa, x2 = 0.2588): 1005.5 ± 0.5 kg/m3
mass density (332.77 K, 1019 kPa, x2 = 0.0629): 1094.5 ± 0.5 kg/m3
mass density (332.77 K, 2029 kPa, x2 = 0.0629): 1095.3 ± 0.5 kg/m3
mass density (332.77 K, 3030 kPa, x2 = 0.0629): 1096 ± 0.5 kg/m3
mass density (332.77 K, 4019 kPa, x2 = 0.0629): 1096.7 ± 0.5 kg/m3
mass density (332.77 K, 5026 kPa, x2 = 0.0629): 1097.4 ± 0.5 kg/m3
mass density (332.77 K, 6037 kPa, x2 = 0.0629): 1098.1 ± 0.5 kg/m3
mass density (332.77 K, 7035 kPa, x2 = 0.0629): 1098.8 ± 0.5 kg/m3
mass density (332.77 K, 8021 kPa, x2 = 0.0629): 1099.5 ± 0.5 kg/m3
mass density (332.77 K, 9012 kPa, x2 = 0.0629): 1100.1 ± 0.5 kg/m3
mass density (332.77 K, 10008 kPa, x2 = 0.0629): 1100.8 ± 0.5 kg/m3
mass density (332.77 K, 11026 kPa, x2 = 0.0629): 1101.5 ± 0.5 kg/m3
mass density (332.77 K, 12020 kPa, x2 = 0.0629): 1102.2 ± 0.5 kg/m3
mass density (332.77 K, 13012 kPa, x2 = 0.0629): 1102.8 ± 0.5 kg/m3
mass density (332.77 K, 14016 kPa, x2 = 0.0629): 1103.4 ± 0.5 kg/m3
mass density (332.77 K, 15015 kPa, x2 = 0.0629): 1104.2 ± 0.5 kg/m3
mass density (332.77 K, 16015 kPa, x2 = 0.0629): 1104.7 ± 0.5 kg/m3
mass density (332.77 K, 17020 kPa, x2 = 0.0629): 1105.4 ± 0.5 kg/m3
mass density (332.77 K, 18020 kPa, x2 = 0.0629): 1106.1 ± 0.5 kg/m3
mass density (332.77 K, 19022 kPa, x2 = 0.0629): 1106.7 ± 0.5 kg/m3
mass density (332.77 K, 20017 kPa, x2 = 0.0629): 1107.3 ± 0.5 kg/m3
mass density (332.82 K, 1026 kPa, x2 = 0.9432): 650.1 ± 0.5 kg/m3
mass density (332.82 K, 2016 kPa, x2 = 0.9432): 651.4 ± 0.5 kg/m3
mass density (332.82 K, 3016 kPa, x2 = 0.9432): 652.8 ± 0.5 kg/m3
mass density (332.82 K, 4023 kPa, x2 = 0.9432): 654.1 ± 0.5 kg/m3
mass density (332.82 K, 5004 kPa, x2 = 0.9432): 655.4 ± 0.5 kg/m3
mass density (332.82 K, 6016 kPa, x2 = 0.9432): 656.7 ± 0.5 kg/m3
mass density (332.82 K, 7012 kPa, x2 = 0.9432): 658 ± 0.5 kg/m3
mass density (332.82 K, 8018 kPa, x2 = 0.9432): 659.2 ± 0.5 kg/m3
mass density (332.82 K, 9014 kPa, x2 = 0.9432): 660.5 ± 0.5 kg/m3
mass density (332.82 K, 10014 kPa, x2 = 0.9432): 661.6 ± 0.5 kg/m3
mass density (332.82 K, 11009 kPa, x2 = 0.9432): 662.8 ± 0.5 kg/m3
mass density (332.82 K, 12005 kPa, x2 = 0.9432): 664 ± 0.5 kg/m3
mass density (332.82 K, 13020 kPa, x2 = 0.9432): 665.1 ± 0.5 kg/m3
mass density (332.82 K, 14007 kPa, x2 = 0.9432): 666.3 ± 0.5 kg/m3
mass density (332.82 K, 15005 kPa, x2 = 0.9432): 667.3 ± 0.5 kg/m3
mass density (332.82 K, 16012 kPa, x2 = 0.9432): 668.4 ± 0.5 kg/m3
mass density (332.82 K, 17015 kPa, x2 = 0.9432): 669.5 ± 0.6 kg/m3
mass density (332.82 K, 18010 kPa, x2 = 0.9432): 670.6 ± 0.6 kg/m3
mass density (332.82 K, 19000 kPa, x2 = 0.9432): 671.6 ± 0.6 kg/m3
mass density (332.82 K, 20001 kPa, x2 = 0.9432): 672.6 ± 0.6 kg/m3
mass density (332.86 K, 1031 kPa, x2 = 0.7491): 743.7 ± 0.5 kg/m3
mass density (332.86 K, 2024 kPa, x2 = 0.7491): 744.9 ± 0.5 kg/m3
mass density (332.86 K, 3019 kPa, x2 = 0.7491): 746.1 ± 0.5 kg/m3
mass density (332.86 K, 4001 kPa, x2 = 0.7491): 747.2 ± 0.5 kg/m3
mass density (332.86 K, 5002 kPa, x2 = 0.7491): 748.4 ± 0.5 kg/m3
mass density (332.86 K, 6020 kPa, x2 = 0.7491): 749.5 ± 0.5 kg/m3
mass density (332.86 K, 7005 kPa, x2 = 0.7491): 750.6 ± 0.5 kg/m3
mass density (332.86 K, 8013 kPa, x2 = 0.7491): 751.7 ± 0.5 kg/m3
mass density (332.86 K, 9004 kPa, x2 = 0.7491): 752.8 ± 0.5 kg/m3
mass density (332.86 K, 10000 kPa, x2 = 0.7491): 753.8 ± 0.5 kg/m3
mass density (332.86 K, 11019 kPa, x2 = 0.7491): 754.9 ± 0.5 kg/m3
mass density (332.86 K, 12006 kPa, x2 = 0.7491): 755.9 ± 0.5 kg/m3
mass density (332.86 K, 13014 kPa, x2 = 0.7491): 757 ± 0.5 kg/m3
mass density (332.86 K, 14008 kPa, x2 = 0.7491): 757.9 ± 0.5 kg/m3
mass density (332.86 K, 15007 kPa, x2 = 0.7491): 758.9 ± 0.5 kg/m3
mass density (332.86 K, 16009 kPa, x2 = 0.7491): 759.9 ± 0.5 kg/m3
mass density (332.86 K, 17002 kPa, x2 = 0.7491): 760.9 ± 0.5 kg/m3
mass density (332.86 K, 18026 kPa, x2 = 0.7491): 761.8 ± 0.5 kg/m3
mass density (332.86 K, 19007 kPa, x2 = 0.7491): 762.8 ± 0.5 kg/m3
mass density (332.86 K, 20017 kPa, x2 = 0.7491): 763.7 ± 0.5 kg/m3

— the NIST ThermoML archive (doi:10.1021/je7003929)
